Test results taken from US11730731B2 (INVENTAGE LAB INC., priority 2021, dated 2023).

Legend:
Type in all cases: in vivo, mouse
[1] = tested on: murine collagen-induced arthritis (CIA); assay: Clinical evaluation of arthritis activity (clinical arthritis index, incidence) in collagen-induced arthritis mice; design: CAI-AUC Mean / Incidence-AUC Mean: unit not given here; conditions: for CAI Mean: naltrexone (Revia Tablet) 10 mg/kg oral once/day
Experimental: As a model of murine collagen-induced arthritis (CIA), 6 to 10 week-old male mice of DBA/1 J strain was prepared. […] The number of experimental animals per cage was kept under 6, and a cage was exchanged twice a week and feed was supplied.
A 2 mg/mL collagen solution was prepared by dissolving bovine type 2 collagen in 10 mM acetic acid. After emulsifying by mixing 2 mg/mL of Complete Freund's adjuvant and collagen solution in a 1:1 (v/v) ratio, it was intradermally injected into the tail of mouse at a dose of 100 μl/animal (first immunization, day 0). After emulsifying by mixing incomplete Freund's adjuvant […] and collagen solution in a 1:1 (v/v) ratio on the 21th day, it was intradermally injected into the tail of mouse at a dose of 100 μl/animal (the secondary immunization, on the 21th day). After that, mice were randomly divided into groups and assigned to experimental groups.
The refrigerated test substance was standed at room temperature 1 hour before administration and dissolved in 0.15 mL of water for injection. 0.15 mL of the test substance was filled using a syringe with a 21 G needle. The needle was changed to 23 G within 2 minutes after filling and the mice were injected.
After administration of the test substance to the collagen-induced arthritis mouse model, the occurrence and level of inflammation were regularly observed from the date of group separation to the end of the experiment (the 41th day). Inflammation level was given a score of 0 to 4 for each paw according to the criteria in Table 4 below, and the sum was used as a clinical arthritis index (CAI).
When the clinical index of each paw was 2 score or higher, it was determined that arthritis occurred, and the incidence was defined as 100% when arthritis occurred in […].
After administration of the test substance to the collagen-induced arthritis mouse model, the occurrence and level of inflammation were regularly observed from the date of group separation to the end date of the experiment (the 41th day). Inflammation level was given a score of 0 to 4 for each paw according to the criteria in Table 4 above, and the sum was used as a clinical arthritis index (CAI).
After administration of the test substance to the collagen-induced arthritis mouse model, the occurrence and level of inflammation were regularly observed from the date of group separation to the end of the experiment (the 41th day). Inflammation level was given a score of 0 to 4 for each paw according to the criteria in Table 4 above, and the sum was used as a clinical arthritis index (CAI).

[2] = tested on: murine collagen-induced arthritis (CIA); assay: Histological estimation of hind paw tissue, hematoxylin/eosin staining, CIA mice; design: scale not given here; conditions: day 41
Experimental: (§1) Mice were sacrificed on the 41th day, which is the end of the experiment, and the tissues of the hind paws were stained with hematoxylin/eosin. Hematoxylin/eosin staining was used to evaluate the activity of inflammation in the arthritic tissue, and toluidine blue staining was performed to confirm the histological therapeutic effect on cartilage destruction.
The hind paw tissue of the mouse was stained with hematoxylin/eosin, and 4 sites (100 magnification) for each tissue were photographed. Two or more investigators evaluated the items of synovial hyperplasia, pannus formation, cartilage destruction, and bone erosion for hematoxylin/eosin staining. The scoring criteria for each item were described in Table 7, and the average score of 4 sites was calculated as the score of each tissue.
Hematoxylin/eosin staining was performed and evaluated in the same manner as in Example 2.3. (1) above, and the score for items of synovial hyperplasia, pannus formation, cartilage destruction, and bone erosion was calculated by scoring each tissue as the average of the score of 4 sites based on Table 7 above.

[3] = tested on: murine collagen-induced arthritis (CIA); assay: Histological estimation of hind paw tissue, toluidine blue staining, CIA mice; design: scale not given here; conditions: day 41
Experimental: as §1
The hind paw tissue of the mouse was stained with toluidine blue, and 4 sites (100 magnification) for each tissue were photographed. Two or more investigators evaluated the items of matrix staining, surface regularity, and cartilage thickness. The scoring criteria for each item was described in Table 9, and the average score of 4 sites was calculated as the score of each
In the same manner as in Example 2.3. (2), the hind paw tissue of the mouse was stained with toluidine blue, and items such as photographing and matrix staining, surface regularity, and cartilage thickness were evaluated. The scoring criteria for each item were described in Table 9, and the average score of 4 sites was calculated as the score of each tissue.
In the same manner as in Example 2.3. (2) above, the hind paw tissue of the mouse was stained with toluidine blue, and items such as photographing and matrix staining, surface regularity, and cartilage thickness were evaluated. The scoring criteria for each item is described in Table 9, and the average score of 4 sites was calculated as the score of each tissue.

[4] = Example 3, CIA mouse, MTX 1 mg/kg ip twice/week, Xeljanz 10 mg/kg oral once/day, MTX 1 mg/kg + Q-DDS 3 mg/mouse
[5] = Example 2, CIA mouse, methotrexate 1 mg/kg ip twice/week, naltrexone 10 mg/kg oral once/day, naltrexone DDS 3 mg/mouse sc once on day 23
[6] = Example 2, CIA mouse, methotrexate 1 mg/kg ip twice/week, naltrexone DDS 3 mg/mouse sc once on day 23
[7] = Example 2, CIA mouse, MTX 1 mg/kg, naltrexone 10 mg/kg oral, naltrexone DDS 3 mg/mouse

Compound: C[C@@H]1CCN(C(=O)CC#N)C[C@@H]1N(C)c1ncnc2[nH]ccc12 [Xeljanz ®, Tofacitinib]
- CAI (D41) Mean [1, 4]: 6.25
- CAI-AUC Mean [1, 4]: 74.50
- Incidence (%) Mean [1, 4]: 27.5%
- Incidence-AUC Mean [1, 4]: 263.8
- Bone erosion score Mean (hematoxylin/eosin) [2, 4]: 1.13
- Cartilage destruction score Mean (hematoxylin/eosin) [2, 4]: 1.38
- Pannus formation score Mean (hematoxylin/eosin) [2, 4]: 1.13
- Synovial hyperplasia score Mean (hematoxylin/eosin) [2, 4]: 1.56
- Cartilage thickness score Mean (toluidine blue) [3, 4]: 0.56
- Matrix staining score Mean (toluidine blue) [3, 4]: 1.42
- Surface regularity score Mean (toluidine blue) [3, 4]: 1.13

Compound: CN(Cc1cnc2nc(N)nc(N)c2n1)c1ccc(C(=O)N[C@@H](CCC(=O)O)C(=O)O)cc1 [Methotrexate, methotrexate]
- CAI-AUC Mean [1, 5]: 46.6
- Incidence (%) Mean [1, 5]: 20.83%
- Incidence-AUC Mean [1, 5]: 185.4
- CAI Mean [1, 6]: 5.92
- CAI (D41) Mean [1, 4]: 6.35
- CAI-AUC Mean [1, 4]: 71.20
- Incidence (%) Mean [1, 4]: 30.0%
- Incidence-AUC Mean [1, 4]: 170.0
- Bone erosion score Mean (hematoxylin/eosin) [2, 7]: 0.08
- Cartilage destruction score Mean (hematoxylin/eosin) [2, 7]: 0.50
- Pannus formation score Mean (hematoxylin/eosin) [2, 7]: 0.14
- Synovial hyperplasia score Mean (hematoxylin/eosin) [2, 7]: 0.91
- Bone erosion score Mean (hematoxylin/eosin) [2, 4]: 0.92
- Cartilage destruction score Mean (hematoxylin/eosin) [2, 4]: 1.02
- Pannus formation score Mean (hematoxylin/eosin) [2, 4]: 0.92
- Synovial hyperplasia score Mean (hematoxylin/eosin) [2, 4]: 1.38
- Cartilage thickness score Mean (toluidine blue) [3, 7]: 0.11
- Matrix staining score Mean (toluidine blue) [3, 7]: 0.61
- Surface regularity score Mean (toluidine blue) [3, 7]: 0.34
- Cartilage thickness score Mean (toluidine blue) [3, 4]: 0.38
- Matrix staining score Mean (toluidine blue) [3, 4]: 1.15
- Surface regularity score Mean (toluidine blue) [3, 4]: 1.02

Compound: O=C1CC[C@@]2(O)[C@H]3Cc4ccc(O)c5c4[C@@]2(CCN3CC2CC2)[C@H]1O5 [Naltrexone, 17-(cyclopropylmethyl)-4,5α-epoxy-3,14-dihydroxymorphinan-6-one]
- Incidence (%) Mean [1, 5]: 41.67%
- CAI Mean [1, 6]: 8.25
- Bone erosion score Mean (hematoxylin/eosin) [2, 7]: 0.58
- Cartilage destruction score Mean (hematoxylin/eosin) [2, 7]: 0.98
- Pannus formation score Mean (hematoxylin/eosin) [2, 7]: 0.58
- Synovial hyperplasia score Mean (hematoxylin/eosin) [2, 7]: 1.27
- Cartilage thickness score Mean (toluidine blue) [3, 7]: 0.39
- Matrix staining score Mean (toluidine blue) [3, 7]: 0.92
- Surface regularity score Mean (toluidine blue) [3, 7]: 0.80
